Assay [1] deals with Adenosine receptor A2a (Sus scrofa).
A further assay addresses Adenosine receptor A2a (Rattus norvegicus, UniProt P30543).
The target of the next assay is T1, Adenosine receptor A3 (Homo sapiens, UniProt P0DMS8).
T1 sequence (P0DMS8 whole entry): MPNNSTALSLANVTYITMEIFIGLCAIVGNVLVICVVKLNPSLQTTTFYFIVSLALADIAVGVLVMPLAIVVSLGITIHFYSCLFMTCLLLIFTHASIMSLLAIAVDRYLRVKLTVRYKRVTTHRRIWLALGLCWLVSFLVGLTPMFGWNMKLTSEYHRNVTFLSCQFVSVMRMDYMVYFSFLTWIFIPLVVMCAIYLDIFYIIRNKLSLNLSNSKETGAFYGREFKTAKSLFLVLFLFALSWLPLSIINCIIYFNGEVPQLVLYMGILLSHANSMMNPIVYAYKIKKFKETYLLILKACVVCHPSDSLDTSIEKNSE
As to the kind of experiment: Binding affinity for Adenosine A3A receptor.

The next assay concerns the target T2, Adenosine receptor A1 (Homo sapiens, UniProt P30542).
T2 sequence (P30542 whole entry): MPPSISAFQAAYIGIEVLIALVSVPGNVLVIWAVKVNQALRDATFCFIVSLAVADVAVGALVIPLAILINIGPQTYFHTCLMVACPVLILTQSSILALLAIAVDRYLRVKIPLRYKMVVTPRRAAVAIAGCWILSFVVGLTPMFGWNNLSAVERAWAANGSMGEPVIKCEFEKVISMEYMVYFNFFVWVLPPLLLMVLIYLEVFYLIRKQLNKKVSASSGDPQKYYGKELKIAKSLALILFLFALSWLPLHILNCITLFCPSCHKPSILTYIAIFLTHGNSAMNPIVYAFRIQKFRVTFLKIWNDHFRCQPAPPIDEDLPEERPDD
The assay is described as follows: Binding affinity for adenosine (ADO) A1 receptor in CHO cells. Type of assay: cell-based.

Adenosine receptor A2a, sequence (P30543 whole entry): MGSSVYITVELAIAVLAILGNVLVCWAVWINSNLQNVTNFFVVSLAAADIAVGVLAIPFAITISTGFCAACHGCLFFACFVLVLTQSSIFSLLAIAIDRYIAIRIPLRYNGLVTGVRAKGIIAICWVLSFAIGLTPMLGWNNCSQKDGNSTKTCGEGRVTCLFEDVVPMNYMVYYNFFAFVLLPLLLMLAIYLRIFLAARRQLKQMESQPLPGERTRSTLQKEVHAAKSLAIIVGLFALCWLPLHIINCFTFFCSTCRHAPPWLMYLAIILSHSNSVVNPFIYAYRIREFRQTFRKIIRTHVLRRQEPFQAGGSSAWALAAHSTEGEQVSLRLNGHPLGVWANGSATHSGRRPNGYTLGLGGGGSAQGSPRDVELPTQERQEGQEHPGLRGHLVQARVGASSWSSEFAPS

As to `CN(C)C(=O)Cn1cc(-c2nc(N)c3ncn([C@@H]4O[C@H](CO)[C@@H](O)[C@H]4O)c3n2)cn1`, the Ki was more than 100000 nM in assay [1] and 21000 nM on Adenosine receptor A2a. Consider `CN(C)C(=O)c1cnn(-c2nc(N)c3ncn([C@@H]4O[C@H](CO)[C@@H](O)[C@H]4O)c3n2)c1`, for which the Ki in assay [1] worked out at 440 nM; at Adenosine receptor A2a, 140 nM.

Turning to `Nc1nc(-c2cnn(CC3CCCCC3)c2)nc2c1ncn2[C@@H]1O[C@H](CO)[C@@H](O)[C@H]1O`, the Ki was 880 nM in assay [1] and 220 nM at Adenosine receptor A2a. For `CCCCCn1cc(-c2nc(N)c3ncn([C@@H]4O[C@H](CO)[C@@H](O)[C@H]4O)c3n2)cn1`, the Ki at Adenosine receptor A3 is more than 10 µM; in assay [1], 2140 nM; at Adenosine receptor A2a, 2590 nM. As for `Cc1cc(-c2ccccc2)nn1-c1nc(N)c2ncn([C@@H]3O[C@H](CO)[C@@H](O)[C@H]3O)c2n1`, the inhibition constant Ki in assay [1] is more than 100000 nM. On to `CNC(=O)Cn1cc(-c2nc(N)c3ncn([C@@H]4O[C@H](CO)[C@@H](O)[C@H]4O)c3n2)cn1`, for which the Ki (in assay [1]; at Adenosine receptor A2a) was more than 100000 nM throughout. As to `CCOC(=O)c1cnn(-c2nc(N)c3ncn([C@@H]4O[C@H](CO)[C@@H](O)[C@H]4O)c3n2)c1`, the figures for the Ki (in assay [1]; at Adenosine receptor A2a) were 1280 nM and 60 nM, respectively.

On to `Cn1cc(-c2nc(N)c3ncn([C@@H]4O[C@H](CO)[C@@H](O)[C@H]4O)c3n2)cn1`, for which the Ki (in assay [1]; at Adenosine receptor A2a) was more than 100000 nM each time. `Nc1nc(-c2cn[nH]c2)nc2c1ncn2[C@@H]1O[C@H](CO)[C@@H](O)[C@H]1O`: the Ki (in assay [1]; on Adenosine receptor A2a) was more than 100000 nM each time. For `Nc1nc(-c2cnn(CCCC3CCCCC3)c2)nc2c1ncn2[C@@H]1O[C@H](CO)[C@@H](O)[C@H]1O`, the Ki in assay [1] worked out at 6680 nM; on Adenosine receptor A2a, 2620 nM.

As to `CCNC(=O)Cn1cc(-c2nc(N)c3ncn([C@@H]4O[C@H](CO)[C@@H](O)[C@H]4O)c3n2)cn1`, the Ki (in assay [1]; on Adenosine receptor A2a) was more than 100000 nM throughout. Molecule `CCCCc1c(C)nn(-c2nc(N)c3ncn([C@@H]4O[C@H](CO)[C@@H](O)[C@H]4O)c3n2)c1C` gave an inhibitory constant (Ki) in assay [1] of more than 100000 nM. Turning to `COc1ccc(-c2cnn(-c3nc(N)c4ncn([C@@H]5O[C@H](CO)[C@@H](O)[C@H]5O)c4n3)c2)cc1`, the figures for the Ki (in assay [1]; at Adenosine receptor A2a) were 560 nM and 190 nM, respectively. The matching figures for `NC(=O)c1cnn(-c2nc(N)c3ncn([C@@H]4O[C@H](CO)[C@@H](O)[C@H]4O)c3n2)c1`: 1350 nM and 350 nM.

Take `CCNC(=O)c1cnn(-c2nc(N)c3ncn([C@@H]4O[C@H](CO)[C@@H](O)[C@H]4O)c3n2)c1`: the Ki in assay [1] amounted to 380 nM; at Adenosine receptor A2a it was 60 nM. On the same counts, the results for `Cc1ccc(-c2cnn(-c3nc(N)c4ncn([C@@H]5O[C@H](CO)[C@@H](O)[C@H]5O)c4n3)c2)cc1` are 490 nM and 190 nM. For `CNC(=O)c1cnn(-c2nc(N)c3ncn([C@@H]4O[C@H](CO)[C@@H](O)[C@H]4O)c3n2)c1` [REGADENOSON ANHYDROUS], the Ki at Adenosine receptor A1 is more than 16.5 µM; at Adenosine receptor A3, more than 10 µM.

With `CCCNC(=O)c1cnn(-c2nc(N)c3ncn([C@@H]4O[C@H](CO)[C@@H](O)[C@H]4O)c3n2)c1`, the Ki in assay [1] amounted to 120 nM; at Adenosine receptor A2a it was 50 nM. The molecule `Nc1nc(N/N=C\C2CCCCC2)nc2c1ncn2[C@@H]1O[C@H](CO)[C@@H](O)[C@H]1O` displayed a Ki on Adenosine receptor A2a of 66 nM. Consider `Nc1nc(-c2cnn(Cc3ccccc3)c2)nc2c1ncn2[C@@H]1O[C@H](CO)[C@@H](O)[C@H]1O`, for which the Ki in assay [1] was found to be 1580 nM; on Adenosine receptor A2a it was 1610 nM.

Take `Nc1nc(-c2cnn(CCc3ccccc3)c2)nc2c1ncn2[C@@H]1O[C@H](CO)[C@@H](O)[C@H]1O`: the values for the Ki (in assay [1]; at Adenosine receptor A2a) were 5900 nM and 2260 nM, respectively. The matching figures for `Nc1nc(-c2cnn(CC(=O)O)c2)nc2c1ncn2[C@@H]1O[C@H](CO)[C@@H](O)[C@H]1O`: more than 100000 nM and more than 100000 nM.

In the case of `C=CCCCn1cc(-c2nc(N)c3ncn([C@@H]4O[C@H](CO)[C@@H](O)[C@H]4O)c3n2)cn1`, the Ki in assay [1] was determined as 1710 nM; on Adenosine receptor A2a it was 470 nM. The matching figures for `CCCCCCCCCCn1cc(-c2nc(N)c3ncn([C@@H]4O[C@H](CO)[C@@H](O)[C@H]4O)c3n2)cn1`: more than 100000 nM and 6110 nM. Regarding `CC(C)(C)c1ccc(Cn2cc(-c3nc(N)c4ncn([C@@H]5O[C@H](CO)[C@@H](O)[C@H]5O)c4n3)cn2)cc1`, the Ki in assay [1] came to 2420 nM; at Adenosine receptor A2a it was 5290 nM. In assay [1], `CCCc1c(C)nn(-c2nc(N)c3ncn([C@@H]4O[C@H](CO)[C@@H](O)[C@H]4O)c3n2)c1C` had a Ki of more than 100000 nM.

Source of the values: ChEMBL document CHEMBL1134910 (Bioorg Med Chem Lett, 2002).
